{
  "source": "ChEMBL document CHEMBL1157996",
  "about": "“Guttiferone F, the first prenylated benzophenone from Allanblackia stuhlmannii” (J Nat Prod, 1999)",
  "system": "Human immunodeficiency virus 1",
  "assay": "Antiviral activity against HIV1 assessed as protection against virus-induced cytopathogenicity",
  "type": "functional, organism-based",
  "data": [
    {"smiles": "C=C(C)[C@H](CC=C(C)C)C[C@@]12C[C@@H](CC=C(C)C)C(C)(C)[C@@](CC=C(C)C)(C(=O)C(C(=O)c3ccc(O)c(O)c3)=C1O)C2=O", "note": "[GUTTIFERONE F]", "values": [
      {"measurement": "EC50", "result": 23, "unit": "µg/mL"}
    ]}
  ]
}
